# According to BindingDB's records for PubMed 1836757 (University of Heidelberg, 1991):
# Target: 5-hydroxytryptamine receptor 1A/1B/1D/2C (Homo sapiens, UniProt P08908+P28221+P28222+P28335)
# Sequence (P08908 whole entry): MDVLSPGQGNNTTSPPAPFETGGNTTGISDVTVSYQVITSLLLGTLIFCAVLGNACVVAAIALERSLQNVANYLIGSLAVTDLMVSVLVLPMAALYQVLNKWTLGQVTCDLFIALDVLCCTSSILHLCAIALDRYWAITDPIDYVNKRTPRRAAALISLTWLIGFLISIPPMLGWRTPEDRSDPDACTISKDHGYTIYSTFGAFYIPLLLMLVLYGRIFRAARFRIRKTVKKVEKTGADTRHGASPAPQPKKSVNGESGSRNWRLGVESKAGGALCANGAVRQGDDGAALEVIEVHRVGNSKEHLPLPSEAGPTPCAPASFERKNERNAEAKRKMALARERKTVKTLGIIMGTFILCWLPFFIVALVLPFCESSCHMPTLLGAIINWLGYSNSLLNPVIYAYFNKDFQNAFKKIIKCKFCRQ
# Sequence (P28222 whole entry): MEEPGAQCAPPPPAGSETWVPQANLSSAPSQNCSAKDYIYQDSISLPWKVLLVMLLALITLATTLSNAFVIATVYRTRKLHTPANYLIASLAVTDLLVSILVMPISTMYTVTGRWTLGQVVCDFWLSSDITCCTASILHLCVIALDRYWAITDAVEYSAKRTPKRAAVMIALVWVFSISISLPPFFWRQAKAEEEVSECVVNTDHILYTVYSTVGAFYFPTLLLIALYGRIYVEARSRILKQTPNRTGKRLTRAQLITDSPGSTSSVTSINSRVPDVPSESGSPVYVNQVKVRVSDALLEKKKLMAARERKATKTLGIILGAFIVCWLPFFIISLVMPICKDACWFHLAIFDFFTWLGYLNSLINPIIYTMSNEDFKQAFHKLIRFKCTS
# Sequence (P28221 whole entry): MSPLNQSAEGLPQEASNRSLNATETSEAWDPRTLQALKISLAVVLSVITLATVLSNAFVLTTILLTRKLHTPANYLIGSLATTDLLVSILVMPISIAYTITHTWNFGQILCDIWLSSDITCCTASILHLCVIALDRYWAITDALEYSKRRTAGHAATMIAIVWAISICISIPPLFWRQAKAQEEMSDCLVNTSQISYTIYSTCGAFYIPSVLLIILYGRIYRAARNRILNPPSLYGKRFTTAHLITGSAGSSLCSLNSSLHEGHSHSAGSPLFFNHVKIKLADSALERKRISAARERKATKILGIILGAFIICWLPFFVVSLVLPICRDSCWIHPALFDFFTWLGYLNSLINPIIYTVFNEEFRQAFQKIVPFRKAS
# Sequence (P28335 whole entry): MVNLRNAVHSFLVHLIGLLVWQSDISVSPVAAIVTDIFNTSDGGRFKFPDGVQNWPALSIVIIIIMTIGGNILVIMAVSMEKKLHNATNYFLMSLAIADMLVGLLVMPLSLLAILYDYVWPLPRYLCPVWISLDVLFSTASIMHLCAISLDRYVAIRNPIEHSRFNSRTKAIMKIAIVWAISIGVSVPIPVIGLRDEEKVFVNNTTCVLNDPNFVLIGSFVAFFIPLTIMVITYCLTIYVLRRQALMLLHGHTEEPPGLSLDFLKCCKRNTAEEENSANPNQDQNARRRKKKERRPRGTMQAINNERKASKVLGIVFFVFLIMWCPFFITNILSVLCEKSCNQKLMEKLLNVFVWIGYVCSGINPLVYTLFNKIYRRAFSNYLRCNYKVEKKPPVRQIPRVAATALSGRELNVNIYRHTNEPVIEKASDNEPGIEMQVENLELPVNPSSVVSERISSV
row,SMILES,Ki
1,CN1C2CCC1CC(OC(=O)c1c[nH]c3ccccc13)C2 (configuration not stated),> 10 µM
2,CC[C@@H](CO)NC(=O)[C@@H]1C=C2c3cccc4c3c(cn4C)C[C@H]2N(C)C1,0.436 µM
